Assay results: patent US9999622B2, “Pyrazolothiazole compound and medicine comprising same” (NIPPON SHINYAKU CO., LTD., priority 2014, dated 2018)
Where a name gives a salt, the structure may show the parent alone.

Key:
Assay type in all cases: biochemical
JAK2 = target: T1, JAK2 (Homo sapiens, UniProt O60674); assay: JAK tyrosine kinase inhibitory activity in the presence of 1 mM ATP (ELISA), JAK2
T1 construct: purchased Carna Biosciences, Inc
Procedure, shortened: (§1)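 Kinase reactions ran on streptavidin-coated plates in 15 mM Tris-HCl pH 7.5, 0.01% Tween-20, 1 mM DTT, 30 °C for 1 h. Enzyme was prediluted to 7.5 nM (JAK1) or 0.75 nM (JAK2, JAK3) before addition. Phosphotyrosine was detected with HRP anti-pTyr antibody and TMB at A450.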

JAK3 = target: T2, JAK3 (Homo sapiens, UniProt P52333); assay: JAK tyrosine kinase inhibitory activity in the presence of 1 mM ATP (ELISA), JAK3
T2 construct: purchased Carna Biosciences, Inc
T2 sequence (P52333 1-1124): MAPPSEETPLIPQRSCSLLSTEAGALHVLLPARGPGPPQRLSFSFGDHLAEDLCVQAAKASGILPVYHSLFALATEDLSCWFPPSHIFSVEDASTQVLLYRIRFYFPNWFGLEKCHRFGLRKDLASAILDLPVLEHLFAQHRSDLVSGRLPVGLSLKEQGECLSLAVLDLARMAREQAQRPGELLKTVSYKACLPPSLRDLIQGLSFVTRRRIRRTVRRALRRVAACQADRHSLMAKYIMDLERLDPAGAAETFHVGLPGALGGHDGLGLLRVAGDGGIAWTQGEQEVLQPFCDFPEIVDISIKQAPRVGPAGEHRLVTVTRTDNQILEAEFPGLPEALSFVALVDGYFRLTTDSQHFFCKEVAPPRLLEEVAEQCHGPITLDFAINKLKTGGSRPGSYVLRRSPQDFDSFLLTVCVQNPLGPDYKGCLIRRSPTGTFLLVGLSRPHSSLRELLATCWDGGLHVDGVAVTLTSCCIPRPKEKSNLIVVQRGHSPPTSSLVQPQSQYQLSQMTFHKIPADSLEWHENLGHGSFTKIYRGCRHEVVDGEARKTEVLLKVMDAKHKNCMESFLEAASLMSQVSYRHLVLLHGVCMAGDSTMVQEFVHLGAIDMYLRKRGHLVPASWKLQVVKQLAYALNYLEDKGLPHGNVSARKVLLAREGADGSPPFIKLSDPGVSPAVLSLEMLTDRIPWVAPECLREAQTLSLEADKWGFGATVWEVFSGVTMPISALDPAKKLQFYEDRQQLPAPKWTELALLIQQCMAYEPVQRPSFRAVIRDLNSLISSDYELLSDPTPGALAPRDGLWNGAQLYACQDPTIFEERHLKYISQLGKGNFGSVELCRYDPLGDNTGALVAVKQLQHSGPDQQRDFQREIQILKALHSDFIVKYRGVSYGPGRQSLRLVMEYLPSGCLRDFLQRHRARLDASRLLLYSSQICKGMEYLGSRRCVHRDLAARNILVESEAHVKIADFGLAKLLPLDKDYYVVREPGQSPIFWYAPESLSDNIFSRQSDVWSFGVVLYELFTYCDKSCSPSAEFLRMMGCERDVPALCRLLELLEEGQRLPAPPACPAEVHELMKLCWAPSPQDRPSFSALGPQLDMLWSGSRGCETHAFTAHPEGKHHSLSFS
Procedure, shortened: as §1

JAK1 = target: T3, JAK1 (Homo sapiens, UniProt P23458); assay: JAK tyrosine kinase inhibitory activity in the presence of 1 mM ATP (ELISA), JAK1
T3 construct: purchased Carna Biosciences, Inc
Procedure, shortened: as §1

T3 sequence (P23458 whole entry): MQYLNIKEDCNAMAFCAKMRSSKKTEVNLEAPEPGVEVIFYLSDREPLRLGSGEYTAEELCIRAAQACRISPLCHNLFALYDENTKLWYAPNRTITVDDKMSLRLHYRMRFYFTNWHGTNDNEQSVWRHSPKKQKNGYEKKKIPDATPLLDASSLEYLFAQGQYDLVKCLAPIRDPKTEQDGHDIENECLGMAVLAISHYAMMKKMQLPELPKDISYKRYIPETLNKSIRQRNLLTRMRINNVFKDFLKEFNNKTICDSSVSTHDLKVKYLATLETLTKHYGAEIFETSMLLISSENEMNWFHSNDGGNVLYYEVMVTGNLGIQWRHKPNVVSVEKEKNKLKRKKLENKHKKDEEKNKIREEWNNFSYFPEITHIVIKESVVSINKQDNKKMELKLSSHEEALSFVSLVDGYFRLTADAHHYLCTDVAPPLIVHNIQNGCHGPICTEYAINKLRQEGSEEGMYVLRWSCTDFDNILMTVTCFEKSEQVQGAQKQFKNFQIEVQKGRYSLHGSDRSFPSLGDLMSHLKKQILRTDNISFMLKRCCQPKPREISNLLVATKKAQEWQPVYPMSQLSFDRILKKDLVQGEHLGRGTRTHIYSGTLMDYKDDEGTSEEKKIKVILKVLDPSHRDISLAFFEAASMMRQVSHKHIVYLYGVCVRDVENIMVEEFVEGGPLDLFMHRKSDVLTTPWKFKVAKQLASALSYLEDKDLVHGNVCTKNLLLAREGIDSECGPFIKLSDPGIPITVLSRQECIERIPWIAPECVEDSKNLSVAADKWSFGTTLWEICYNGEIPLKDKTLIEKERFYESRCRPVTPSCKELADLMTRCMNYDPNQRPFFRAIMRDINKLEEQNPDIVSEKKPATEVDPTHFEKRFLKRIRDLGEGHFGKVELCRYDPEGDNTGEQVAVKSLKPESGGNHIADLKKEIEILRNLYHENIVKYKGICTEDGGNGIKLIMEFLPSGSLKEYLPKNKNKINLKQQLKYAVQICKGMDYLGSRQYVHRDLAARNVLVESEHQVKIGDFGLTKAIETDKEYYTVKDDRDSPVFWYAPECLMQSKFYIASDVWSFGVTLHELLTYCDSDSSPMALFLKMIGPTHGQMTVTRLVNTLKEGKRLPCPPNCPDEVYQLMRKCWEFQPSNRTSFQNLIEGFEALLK
T1 sequence (O60674 whole entry): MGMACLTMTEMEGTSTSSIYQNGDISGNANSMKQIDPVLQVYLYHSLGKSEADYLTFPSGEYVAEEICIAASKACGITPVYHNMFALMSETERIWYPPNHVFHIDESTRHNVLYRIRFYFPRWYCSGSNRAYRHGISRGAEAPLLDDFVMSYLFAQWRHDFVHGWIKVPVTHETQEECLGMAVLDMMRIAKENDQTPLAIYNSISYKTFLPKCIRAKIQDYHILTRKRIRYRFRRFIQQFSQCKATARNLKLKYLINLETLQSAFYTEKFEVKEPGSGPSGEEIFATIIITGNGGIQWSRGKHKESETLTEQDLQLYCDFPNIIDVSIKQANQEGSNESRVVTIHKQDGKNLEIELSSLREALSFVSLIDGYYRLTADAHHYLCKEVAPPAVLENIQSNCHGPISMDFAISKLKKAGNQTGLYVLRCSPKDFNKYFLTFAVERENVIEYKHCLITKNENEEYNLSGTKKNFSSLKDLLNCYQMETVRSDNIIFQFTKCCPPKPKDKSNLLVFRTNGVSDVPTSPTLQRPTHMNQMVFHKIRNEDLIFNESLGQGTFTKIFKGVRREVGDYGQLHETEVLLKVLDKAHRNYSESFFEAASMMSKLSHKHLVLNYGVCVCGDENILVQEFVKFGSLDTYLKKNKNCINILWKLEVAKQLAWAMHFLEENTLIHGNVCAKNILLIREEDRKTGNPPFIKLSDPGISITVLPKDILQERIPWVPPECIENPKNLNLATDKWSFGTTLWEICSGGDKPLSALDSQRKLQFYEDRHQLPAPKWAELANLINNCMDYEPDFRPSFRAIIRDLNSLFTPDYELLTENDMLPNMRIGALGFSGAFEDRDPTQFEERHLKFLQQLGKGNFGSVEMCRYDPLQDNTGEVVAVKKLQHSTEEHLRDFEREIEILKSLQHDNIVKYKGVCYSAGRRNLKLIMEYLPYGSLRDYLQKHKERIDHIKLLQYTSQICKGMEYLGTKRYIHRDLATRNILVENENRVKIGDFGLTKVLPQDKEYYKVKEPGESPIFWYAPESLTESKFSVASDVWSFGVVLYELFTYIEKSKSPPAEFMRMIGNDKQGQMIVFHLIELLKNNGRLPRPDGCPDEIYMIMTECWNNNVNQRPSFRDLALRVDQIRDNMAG

IC50 (JAK2) [nM]	IC50 (JAK3) [nM]	IC50 (JAK1) [nM]	Structure (SMILES)
2500	> 10000	200	CCC(CC)Oc1cc(C(=O)N2CCC(NC(=O)OC)CC2)nc(-c2cnn3ccsc23)n1 [Example 108, Methyl (1-{[6-(pentan-3-yloxy)-2-(pyrazolo[5,1-b][1,3]thiazol-7-yl)pyrimidin-4-yl]carbonyl}piperidin-4-yl)carbamate]
1800	2400	190	CCC(CC)Nc1cc(C(=O)N2CCC(NC(=O)OC)CC2)nc(-c2cnn3ccsc23)n1 [Example 109, Methyl (1-{[6-(pentan-3-ylamino)-2-(pyrazolo[5,1-b][1,3]thiazol-7-yl)pyrimidin-4-yl]carbonyl}piperidin-4-yl)carbamate]
880	> 10000	78	CCC(CC)CNc1cc(C(=O)N2CCC(NC(=O)C3CC3)CC2)nc(-c2cnn3ccsc23)n1 [Example 110, N-[1-({6-[(2-Ethylbutyl)amino]-2-(pyrazolo[5,1-b][1,3]thiazol-7-yl)pyrimidin-4-yl}carbonyl)piperidin-4-yl]cyclopropanecarboxamide]
2400	> 10000	120	CCC(CC)Oc1cc(C(=O)N2CCC(NC(=O)C3CC3)CC2)nc(-c2cnn3ccsc23)n1 [Example 111, N-(1-{[6-(Pentan-3-yloxy)-2-(pyrazolo[5,1-b][1,3]thiazol-7-yl)pyrimidin-4-yl]carbonyl}piperidin-4-yl)cyclopropanecarboxamide]
3500	2900	350	CCC(CC)N(C)c1cc(C(=O)N2CCC(NC(=O)OC)CC2)nc(-c2cnn3ccsc23)n1 [Example 112, Methyl [1-({6-[methyl(pentan-3-yl)amino]-2-(pyrazolo[5,1-b][1,3]thiazol-7-yl)pyrimidin-4-yl}carbonyl)piperidin-4-yl]carbamate]
1900	3800	210	CCC(=O)NC1CCN(C(=O)c2cc(N(C)C(CC)CC)nc(-c3cnn4ccsc34)n2)CC1 [Example 116, N-[1-({6-[Methyl(pentan-3-yl)amino]-2-(pyrazolo[5,1-b][1,3]thiazol-7-yl)pyrimidin-4-yl}carbonyl)piperidin-4-yl]propanamide]
> 10000	5700	1400	N#CC1(Nc2cc(C(=O)N3CCC(O)CC3)nc(-c3cnn4ccsc34)n2)CC1 [Example 117, 1-({6-[(4-Hydroxypiperidin-1-yl)carbonyl]-2-(pyrazolo[5,1-b][1,3]thiazol-7-yl)pyrimidin-4-yl}amino)cyclopropanecarbonitrile hydrochloride]
4200	> 10000	670	CCC(=O)NC1CCN(C(=O)c2cc(NCC(C)(C)OC)nc(-c3cnn4ccsc34)n2)CC1 [Example 119, N-[1-({6-[(2-Methoxy-2-methylpropyl)amino]-2-(pyrazolo[5,1-b][1,3]thiazol-7-yl)pyrimidin-4-yl}carbonyl)piperidin-4-yl]propanamide]
3000	3400	870	CCC(CC)N(C)c1cc(C(=O)N2CCC(O)CC2)nc(-c2cnn3ccsc23)n1 [Example 120, (4-Hydroxypiperidin-1-yl){6-[methyl(pentan-3-yl)amino]-2-(pyrazolo[5,1-b][1,3]thiazol-7-yl)pyrimidin-4-yl}methanone hydrochloride]
1400	1600	260	CC(C)[C@H](C)Nc1cc(C(=O)N2CCC(NC(=O)C3CC3)CC2)nc(-c2cnn3ccsc23)n1 [Example 123, N-(1-{[6-{[(2S)-3-Methylbutan-2-yl]amino}-2-(pyrazolo[5,1-b][1,3]thiazol-7-yl)pyrimidin-4-yl]carbonyl}piperidin-4-yl)cyclopropanecarboxamide]
1700	2200	220	CCC(CC)Nc1cc(C(=O)N2CCC(NC(=O)C3CC3)CC2)nc(-c2cnn3ccsc23)n1 [Example 124, N-(1-{[6-(Pentan-3-ylamino)-2-(pyrazolo[5,1-b][1,3]thiazol-7-yl)pyrimidin-4-yl]carbonyl}piperidin-4-yl)cyclopropanecarboxamide]
8500	> 10000	760	CCC(=O)NC1CCN(C(=O)c2cc(NC3(C)CC3)nc(-c3cnn4ccsc34)n2)CC1 [Example 128, N-[1-({6-[(1-Methylcyclopropyl)amino]-2-(pyrazolo[5,1-b][1,3]thiazol-7-yl)pyrimidin-4-yl}carbonyl)piperidin-4-yl]propanamide]
2200	4700	310	CCC(=O)NC1CCN(C(=O)c2cc(N[C@@H](C)CC)nc(-c3cnn4ccsc34)n2)CC1 [Example 131, N-[1-({6-[(2S)-Butan-2-ylamino]-2-(pyrazolo[5,1-b][1,3]thiazol-7-yl)pyrimidin-4-yl}carbonyl)piperidin-4-yl]propanamide]
> 10000	> 10000	790	COC(=O)NC1CCN(C(=O)c2cc(N(C)C(C)(C)C)nc(-c3cnn4ccsc34)n2)CC1 [Example 132, Methyl [1-({6-[tert-butyl(methyl)amino]-2-(pyrazolo[5,1-b][1,3]thiazol-7-yl)pyrimidin-4-yl}carbonyl)piperidin-4-yl]carbamate hydrochloride]
> 10000	> 10000	2900	CCN(c1cc(C(=O)N2CCC(O)CC2)nc(-c2cnn3ccsc23)n1)C(C)(C)C [Example 133, {6-[tert-Butyl(ethyl)amino]-2-(pyrazolo[5,1-b][1,3]thiazol-7-yl)pyrimidin-4-yl}(4-hydroxypiperidin-1-yl)methanone]
2400	3700	68	CC(C)(C)Nc1cc(C(=O)N2CCC(NC(=O)OC3CC3)CC2)nc(-c2cnn3ccsc23)n1 [Example 135, Cyclopropyl (1-{[6-(tert-butylamino)-2-(pyrazolo[5,1-b][1,3]thiazol-7-yl)pyrimidin-4-yl]carbonyl}piperidin-4-yl)carbamate]
1400	3500	490	CC(C)[C@@H](C)Nc1cc(C(=O)N2CCC(NC(=O)C(F)F)CC2)nc(-c2cnn3ccsc23)n1 [Example 136, 2,2-Difluoro-N-(1-{[6-{[(2R)-3-methylbutan-2-yl]amino}-2-(pyrazolo[5,1-b][1,3]thiazol-7-yl)pyrimidin-4-yl]carbonyl}piperidin-4-yl)acetamide]
1400	4200	640	CN(C)C(=O)NC1CCN(C(=O)c2cc(NCC(C)(C)C)nc(-c3cnn4ccsc34)n2)CC1 [Example 137, 3-[1-({6-[(2,2-Dimethylpropyl)amino]-2-(pyrazolo[5,1-b][1,3]thiazol-7-yl)pyrimidin-4-yl}carbonyl)piperidin-4-yl]-1,1-dimethylurea]
2000	4300	650	C[C@@H](Nc1cc(C(=O)N2CCC(NC(=O)N(C)C)CC2)nc(-c2cnn3ccsc23)n1)C1CC1 [Example 138, 3-(1-{[6-{[(1R)-1-Cyclopropylethyl]amino}-2-(pyrazolo[5,1-b][1,3]thiazol-7-yl)pyrimidin-4-yl]carbonyl}piperidin-4-yl)-1,1-dimethylurea]
2900	2100	43	CC(C)OC(=O)NC1CCN(C(=O)c2cc(NC3(C)COC3)nc(-c3cnn4ccsc34)n2)CC1 [Example 139, Propan-2-yl [1-({6-[(3-methyloxetan-3-yl)amino]-2-(pyrazolo[5,1-b][1,3]thiazol-7-yl)pyrimidin-4-yl}carbonyl)piperidin-4-yl]carbamate]

Structure (SMILES)	IC50 (JAK2) [nM]	IC50 (JAK3) [nM]	IC50 (JAK1) [nM]
CCC(=O)NC1CCN(C(=O)c2cc(OCC(CC)CC)nc(-c3cnn4ccsc34)n2)CC1 [Example 114, N-(1-{[6-(2-Ethylbutoxy)-2-(pyrazolo[5,1-b][1,3]thiazol-7-yl)pyrimidin-4-yl]carbonyl}piperidin-4-yl)propanamide]	1200	2700	360
